Assay results as given in ChEMBL document CHEMBL1201862, “PubChem BioAssay data set” (2004).
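All cell lines were grown in 96-well plates and treated with compound for 48 hours. GI50 = concentration required for 50% inhibition of growth.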 Activity calls are given as the source filed them. Rule as the data show it: active = GI50 up to about 1.1 µM and inactive = higher. Where a SMILES comes first, the peptide text is derived from it. The star is where a group is joined. Cbz = O=C(OCc1ccccc1)*

Columns and labels:
Assay in all cases: NCI tumour cell line growth inhibition, 48 h
TK-10 = test system: TK-10
CAKI-1 = test system: CAKI-1
OVCAR-3 = test system: OVCAR-3
SW-620 = test system: SW-620
HL-60 = test system: HL-60
SNB-75 = test system: SNB-75
MDA-MB-231 = test system: MDA-MB-231
KM12 = test system: KM12
SNB-19 = test system: SNB-19
SF-295 = test system: SF-295
K562 = test system: K562
HCT-116 = test system: HCT-116
Hs-578T = test system: Hs-578T
SF-268 = test system: SF-268
SK-MEL-2 = test system: SK-MEL-2
OVCAR-8 = test system: OVCAR-8
NCI-H226 = test system: NCI-H226
T47D = test system: T47D
MCF7 = test system: MCF7
BT-549 = test system: BT-549

Row | Compound | GI50 (TK-10) | GI50 (CAKI-1) | GI50 (OVCAR-3) | GI50 (SW-620) | GI50 (HL-60) | GI50 (SNB-75) | GI50 (MDA-MB-231) | GI50 (KM12) | GI50 (SNB-19) | GI50 (SF-295) | GI50 (K562) | GI50 (HCT-116) | GI50 (Hs-578T) | GI50 (SF-268) | GI50 (SK-MEL-2) | GI50 (OVCAR-8) | GI50 (NCI-H226) | GI50 (T47D) | GI50 (MCF7) | GI50 (BT-549)
1 | O=C(O)C(Cc1ccccc1)NCc1c(O)ccc2c(-c3ccccc3)cc(=O)oc12 (centres undefined) | > 100 µM (inactive) | > 100 µM (inactive) | > 100 µM (inactive) | > 100 µM (inactive) | > 100 µM (inactive) | > 100 µM (inactive) | > 100 µM (inactive) | > 100 µM (inactive) | > 100 µM (inactive) | > 100 µM (inactive) | > 100 µM (inactive) | > 100 µM (inactive) | > 100 µM (inactive) | > 100 µM (inactive) | > 100 µM (inactive) | > 100 µM (inactive) | > 100 µM (inactive) | > 100 µM (inactive) | > 100 µM (inactive) | 
2 | Cc1ccc(O)c(-c2cscn2)c1 | 44.8 µM (inactive) | 39.3 µM (inactive) | 35.2 µM (inactive) | 51.5 µM (inactive) | 1.81 µM (inactive) |  |  |  | 25.1 µM (inactive) | 40 µM (inactive) | 52 µM (inactive) | 30.4 µM (inactive) | 32.9 µM (inactive) |  | 64 µM (inactive) | 42.9 µM (inactive) |  |  | 39.9 µM (inactive) | 74.5 µM (inactive)
3 | O=C1[C@@H]2C(c3ccccc3F)=NO[C@@H]2C(=O)N1c1ccc(Cc2ccc(N3C(=O)[C@H]4C(c5ccccc5F)=NO[C@H]4C3=O)cc2)cc1 | > 31.6 µM (inactive) | > 100 µM (inactive) | > 100 µM (inactive) | > 75.7 µM (inactive) | 14.4 µM (inactive) | > 100 µM (inactive) |  | > 100 µM (inactive) | > 100 µM (inactive) | > 100 µM (inactive) | > 55.1 µM (inactive) | > 100 µM (inactive) |  | > 100 µM (inactive) | > 100 µM (inactive) | > 100 µM (inactive) | > 100 µM (inactive) |  |  | 
4 | C/C(=N\Nc1nc2cccnc2s1)c1ccccn1 |  | < 0.0105 µM (active) | < 0.0169 µM (active) | < 0.0143 µM (active) | < 0.01 µM (active) | 0.451 µM (active) | < 0.01 µM (active) | 0.273 µM (active) | 0.491 µM (active) | 0.288 µM (active) | < 0.0149 µM (active) | < 0.01 µM (active) | 0.436 µM (active) | 0.0284 µM (active) | 2.98 µM (inactive) | < 0.01 µM (active) | < 0.0155 µM (active) |  | 0.0136 µM (active) | 0.117 µM (active)
5 | O=C(NC(Cl)(C(F)(F)F)C(F)(F)F)c1ccc(F)cc1 | > 100 µM (inactive) | > 100 µM (inactive) | > 100 µM (inactive) | > 100 µM (inactive) | > 100 µM (inactive) | 0.789 µM (active) | > 100 µM (inactive) | > 100 µM (inactive) | > 100 µM (inactive) | > 100 µM (inactive) | > 100 µM (inactive) | > 100 µM (inactive) | > 100 µM (inactive) | > 100 µM (inactive) | > 100 µM (inactive) | > 100 µM (inactive) | > 100 µM (inactive) | > 100 µM (inactive) | > 100 µM (inactive) | 
6 | COc1nc2sc3c(c2c(=O)n1CCCSSCCCn1c(OC)nc2sc4c(c2c1=O)CCCC4)CCCC3 | > 100 µM (inactive) | > 100 µM (inactive) |  |  |  | > 100 µM (inactive) | > 100 µM (inactive) | > 100 µM (inactive) | > 100 µM (inactive) | > 100 µM (inactive) | > 100 µM (inactive) | > 100 µM (inactive) |  |  | > 100 µM (inactive) | > 100 µM (inactive) | > 100 µM (inactive) | > 100 µM (inactive) | > 100 µM (inactive) | 
7 | O=P1(O)c2ccccc2CCc2ccccc21 | > 100 µM (inactive) | > 100 µM (inactive) | > 100 µM (inactive) | > 100 µM (inactive) |  | > 100 µM (inactive) | > 100 µM (inactive) | > 100 µM (inactive) | > 100 µM (inactive) | > 100 µM (inactive) | > 100 µM (inactive) | > 100 µM (inactive) | > 100 µM (inactive) | > 100 µM (inactive) | > 100 µM (inactive) | > 100 µM (inactive) | > 100 µM (inactive) |  | > 100 µM (inactive) | 80.7 µM (inactive)
8 | COc1ccc(/N=C2\C(=N/c3ccc(OC)cc3)N(c3ccc(N(C)C)cc3)C(=S)N2c2ccc(OC)cc2)cc1 | > 100 µM (inactive) |  | > 100 µM (inactive) | > 100 µM (inactive) | > 100 µM (inactive) |  | > 100 µM (inactive) | > 100 µM (inactive) | > 100 µM (inactive) | 0.0518 µM (active) | > 100 µM (inactive) | > 100 µM (inactive) |  | > 100 µM (inactive) | > 100 µM (inactive) | > 37.2 µM (inactive) | > 100 µM (inactive) | > 100 µM (inactive) | > 100 µM (inactive) | > 100 µM (inactive)
9 | O=C(NCCO)c1c(O)c2ccccc2[nH]c1=O | > 100 µM (inactive) | > 100 µM (inactive) | > 100 µM (inactive) | > 100 µM (inactive) | > 100 µM (inactive) | > 100 µM (inactive) | > 100 µM (inactive) | > 100 µM (inactive) | > 100 µM (inactive) | > 100 µM (inactive) | > 100 µM (inactive) | > 100 µM (inactive) | > 100 µM (inactive) | > 100 µM (inactive) |  | > 100 µM (inactive) | > 100 µM (inactive) |  | > 100 µM (inactive) | > 100 µM (inactive)
10 | N#C[C@H]1C(=O)C(c2nc3ccccc3[nH]2)S[C@H]1c1ccccc1 (some centres undefined) | 95.9 µM (inactive) | 38.6 µM (inactive) | 31 µM (inactive) | 32.5 µM (inactive) | 25.4 µM (inactive) |  |  | 44.2 µM (inactive) | 45.4 µM (inactive) | 25.2 µM (inactive) | 35.2 µM (inactive) | 27.4 µM (inactive) | 45.2 µM (inactive) |  |  | 43.2 µM (inactive) | 85.3 µM (inactive) |  | 28.4 µM (inactive) | 26.5 µM (inactive)
11 | CC(/C=C/c1ccccc1)=N\NC(N)=S | 39.4 µM (inactive) | 35.7 µM (inactive) | 24.5 µM (inactive) | 50.4 µM (inactive) | 15.1 µM (inactive) |  | 34.6 µM (inactive) | 28.3 µM (inactive) | 24 µM (inactive) | 21.5 µM (inactive) |  | 35.7 µM (inactive) |  | 61.7 µM (inactive) |  | 39 µM (inactive) | 80 µM (inactive) | 11.8 µM (inactive) | 33 µM (inactive) | 29.9 µM (inactive)
12 | C=C1CCCCCCCCCCC1[S+]([O-])c1ccccc1 (centres undefined) |  | > 100 µM (inactive) | 34.1 µM (inactive) |  | 19.1 µM (inactive) |  | 24.5 µM (inactive) |  | 56.6 µM (inactive) | 42 µM (inactive) | 33.8 µM (inactive) | 30.5 µM (inactive) | 44.5 µM (inactive) | 27.7 µM (inactive) | > 100 µM (inactive) |  | 44.7 µM (inactive) | > 100 µM (inactive) | 30.1 µM (inactive) | 
13 | COc1nc(/C=N/NC(N)=S)nc(OC)n1 | > 100 µM (inactive) | 78.5 µM (inactive) | > 100 µM (inactive) | > 100 µM (inactive) | 45.8 µM (inactive) | 32.7 µM (inactive) |  | > 100 µM (inactive) | > 100 µM (inactive) | 42.3 µM (inactive) | > 100 µM (inactive) | 64.4 µM (inactive) |  | 61.7 µM (inactive) | > 100 µM (inactive) | 56.9 µM (inactive) | 69.7 µM (inactive) |  |  | 
14 | Cc1nc(-c2nc(C)c(C(=O)NNC(=O)C[n+]3ccccc3)s2)sc1C(=O)NNC(=O)C[n+]1ccccc1 | > 100 µM (inactive) | 18.6 µM (inactive) | 90.2 µM (inactive) | > 100 µM (inactive) | 40.2 µM (inactive) | 25.5 µM (inactive) |  | > 100 µM (inactive) | 25.4 µM (inactive) | 65.6 µM (inactive) | 78.2 µM (inactive) | 47 µM (inactive) |  | 39.7 µM (inactive) | > 100 µM (inactive) | > 100 µM (inactive) | 39.5 µM (inactive) |  |  | 
15 | COc1ccc(C2CC(=O)c3c(O)cc(O)cc3O2)cc1O (centres undefined) | > 100 µM (inactive) | > 100 µM (inactive) | > 100 µM (inactive) | > 100 µM (inactive) | > 100 µM (inactive) | 53.8 µM (inactive) |  | > 100 µM (inactive) | > 100 µM (inactive) | > 100 µM (inactive) | 28.8 µM (inactive) | > 100 µM (inactive) |  | > 100 µM (inactive) | > 100 µM (inactive) | > 100 µM (inactive) | > 100 µM (inactive) |  |  | 
16 | COc1ccc(NCc2cc(OC)c(OC)c(OC)c2)cc1 |  |  | 0.255 µM (active) | 0.215 µM (active) | 0.205 µM (active) |  | 0.596 µM (active) | 0.201 µM (active) | 0.698 µM (active) | 0.294 µM (active) |  | 0.408 µM (active) | 0.641 µM (active) | 0.698 µM (active) | 0.466 µM (active) | 0.716 µM (active) |  |  | 0.491 µM (active) | 
17 | CCOC(=O)CCC(NC(=O)C(CC(=O)OC)NC(=O)OCc1ccccc1)C(=O)NC(CC(=O)OC)C(=O)NC(CCC(=O)OCC)C(=O)NC(CC(=O)OC)C(=O)NC(CCC(=O)OCC)C(=O)NC(CC(=O)OCC)C(=O)OCC (centres undefined) (Cbz-D(OMe)E(OEt)D(OMe)E(OEt)D(OMe)E(OEt)D(OEt)-OEt; configuration not given here) | > 100 µM (inactive) |  | > 100 µM (inactive) | > 100 µM (inactive) | > 100 µM (inactive) |  | > 100 µM (inactive) |  | > 100 µM (inactive) |  | > 100 µM (inactive) | > 100 µM (inactive) |  |  | > 100 µM (inactive) | > 100 µM (inactive) | > 100 µM (inactive) | > 100 µM (inactive) | > 100 µM (inactive) | > 100 µM (inactive)
